Legend:
KRAS G12D [1] = target: T1, KRAS G12D (Homo sapiens (Human), UniProt P01116, G12D); experiment: KRAS G12D Nucleotide Exchange Assay (HTRF); assay type: biochemical; conditions: recombinant GDP-loaded KRAS G12D (20 nM), BIODIPY-labeled GDP (400 nM), recombinant SOS (10 nM), HTRF signal
Experimental: Recombinant GDP-loaded KRAS G12D (20 nM) was treated with compound at room temperature for 20 minutes in assay buffer (10 mM Hepes pH 7.4, 150 mM NaCl, 5 mM MgCl2, 0.0025% Igepal-CA630, 0.05% BSA, 1 mM DTT, 0.5 nM SA-Tb). BIODIPY-labeled GDP (400 nM) and recombinant SOS (10 nM) were added, and the reaction was incubated for 30 minutes.

KRAS G12D [2] = target: T1, KRAS G12D; experiment: KRAS G12D RAF Disruption Assay (HTRF); assay type: biochemical; conditions: recombinant GMPPNP-loaded KRAS G12D (5 nM), GST-RAF1 RBD (9 nM), HTRF signal
Experimental: Recombinant GMPPNP-loaded KRAS G12D (5 nM) was treated with compound at room temperature for 20 minutes in assay buffer (50 mM Tris pH 7.5, 100 mM NaCl, 1 mM MgCl2, 1 mM DTT, 100 ug/mL BSA).

T1 sequence (P01116-2 other isoform, or with tags, fused parts or gaps G12D): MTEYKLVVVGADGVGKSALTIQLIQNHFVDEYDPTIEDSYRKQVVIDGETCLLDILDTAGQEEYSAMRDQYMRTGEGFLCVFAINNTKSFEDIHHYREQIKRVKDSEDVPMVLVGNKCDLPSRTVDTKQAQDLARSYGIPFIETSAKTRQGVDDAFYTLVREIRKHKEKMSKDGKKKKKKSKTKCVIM

SMILES	KRASG12D Nucleotide Exchange Assay (IC50, µM) (KRAS G12D [1])	KRASG12D RAF Disruption Assay (IC50, µM) (KRAS G12D [2])
CCc1cccc2cc(O)cc(-c3c(Cl)cc4c(N5CC[C@H]6CC[C@@H](C5)N6)nc(OC[C@@]56CCCN5C[C@H](F)C6)nc4c3F)c12 (single isomer, unassigned) [Example 8-1]	0.04 µM	5.7 µM
CCc1cccc2cc(O)cc(-c3c(Cl)cc4c(N5CC[C@H]6CC[C@@H](C5)N6)nc(OC[C@@]56CCCN5C[C@H](F)C6)nc4c3F)c12 (single isomer, unassigned) [Example 8-2]	1.3 µM	19.6 µM
CCc1cccc2cc(O)cc(-c3c(Cl)cc4c(N5CC[C@H]6CC[C@@H](C5)N6)nc(OC[C@]56CCCN5C[C@@H](F)C6)nc4c3F)c12 (single isomer, unassigned) [Example 8-3]	0.07 µM	17.3 µM
CCc1cccc2cc(O)cc(-c3c(Cl)cc4c(N5CC[C@H]6CC[C@@H](C5)N6)nc(OC[C@]56CCCN5C[C@@H](F)C6)nc4c3F)c12 (single isomer, unassigned) [Example 8-4]	7.7 µM	37.8 µM
Oc1cc(-c2c(Cl)cc3c(N4CC[C@H]5CC[C@@H](C4)N5)nc(OC[C@@]45CCCN4C[C@H](F)C5)nc3c2F)c2c(F)cccc2c1 (single isomer, unassigned) [Example 8-5]	–	0.07 µM
Oc1cc(-c2c(Cl)cc3c(N4CC[C@H]5CC[C@@H](C4)N5)nc(OC[C@@]45CCCN4C[C@H](F)C5)nc3c2F)c2c(F)cccc2c1 (single isomer, unassigned) [Example 8-6]	0.07 µM	3.6 µM
Oc1cc(-c2c(Cl)cc3c(N4CC[C@H]5CC[C@@H](C4)N5)nc(OC[C@@]45CCCN4C[C@H](F)C5)nc3c2F)c2ccccc2c1 (single isomer, unassigned) [Example 8-7]	0.006 µM	0.51 µM
Oc1cc(-c2c(Cl)cc3c(N4CC[C@H]5CC[C@@H](C4)N5)nc(OC[C@@]45CCCN4C[C@H](F)C5)nc3c2F)c2ccccc2c1 (single isomer, unassigned) [Example 8-8]	0.3 µM	15.5 µM
Oc1cc(-c2c(Cl)cc3c(N4CC[C@H]5CC[C@@H](C4)N5)nc(OC[C@]45CCCN4C[C@@H](F)C5)nc3c2F)c2ccccc2c1 (single isomer, unassigned) [Example 8-9]	0.005 µM	0.7 µM
Oc1cc(-c2c(Cl)cc3c(N4CC[C@H]5CC[C@@H](C4)N5)nc(OC[C@]45CCCN4C[C@@H](F)C5)nc3c2F)c2ccccc2c1 (single isomer, unassigned) [Example 8-10]	0.50 µM	14.2 µM
Cc1cc(N)nc(-c2c(Cl)cc3c(N4CC[C@H]5CC[C@@H](C4)N5)nc(OC[C@@]45CCCN4C[C@@H](OC(F)F)C5)nc3c2F)c1C(F)(F)F (single isomer, unassigned) [Example 10-5]	0.9 µM	81 µM
Cc1cc(N)nc(-c2c(Cl)cc3c(N4CC[C@H]5CC[C@@H](C4)N5)nc(OC[C@@]45CCCN4C[C@@H](OC(F)F)C5)nc3c2F)c1C(F)(F)F (single isomer, unassigned) [Example 10-6]	0.2 µM	>100 µM
CN1CCC[C@H]1COc1nc(N2C3CCNCC2CC3)c2cc(Cl)c(-c3cc(O)cc4ccccc34)c(F)c2n1 (stereo partly drawn) [Example 1-1, 4-(6-chloro-4-{3,9-diazabicyclo[4.2.1]nonan-9-yl}-8-fluoro-2-{[(2S)-1-methylpyrrolidin-2-yl]methoxy}quinazolin-7-yl)naphthalen-2-ol]	33.33 µM	41.99 µM
CN1CCC[C@H]1COc1nc(N2CCN3CCC2CC3)c2cc(Cl)c(-c3cc(O)cc4ccccc34)c(F)c2n1 [Example 1-2, 4-(6-chloro-4-{1,4-diazabicyclo[3.2.2]nonan-4-yl}-8-fluoro-2-{[(2S)-1-methylpyrrolidin-2-yl]methoxy}quinazolin-7-yl)naphthalen-2-ol]	13.66 µM	>100 µM
Cc1cc(N)nc(-c2c(Cl)cc3c(N4CCC5CCC(C4)N5)nc(OC[C@@H]4CCCN4C)nc3c2F)c1C(F)(F)F (stereo partly drawn) [Example 2-1, 6-(6-chloro-4-{3,9-diazabicyclo[4.2.1]nonan-3-yl}-8-fluoro-2-{[(2S)-1-methylpyrrolidin-2-yl]methoxy}quinazolin-7-yl)-4-methyl-5-(trifluoromethyl)pyridin-2-amine]	0.04 µM	6.19 µM
Cc1cc(N)nc(-c2c(Cl)cc3c(N4CC5CCC(C4)NC5)nc(OC[C@@H]4CCCN4C)nc3c2F)c1C(F)(F)F (stereo partly drawn) [Example 2-2, 6-(6-chloro-4-{3,6-diazabicyclo[3.2.2]nonan-3-yl}-8-fluoro-2-{[(2S)-1-methylpyrrolidin-2-yl]methoxy}quinazolin-7-yl)-4-methyl-5-(trifluoromethyl)pyridin-2-amine]	0.14 µM	10.88 µM
Cc1cc(N)nc(-c2c(Cl)cc3c(N4CC[C@H]5CC[C@@H](C4)N5)nc(OC[C@]45CCC[C@H]4N(C)CCC5)nc3c2F)c1C(F)(F)F [Example 3, 6-(2-{[(4aS,7aR)-1-methyl-octahydro-1H-cyclopenta[b]pyridin-4a-yl]methoxy}-6-chloro-4-[(1S,6R)-3,9-diazabicyclo[4.2.1]nonan-3-yl]-8-fluoroquinazolin-7-yl)-4-methyl-5-(trifluoromethyl)pyridin-2-amine]	<0.002 µM	0.05 µM
Cc1cc(N)nc(-c2c(Cl)cc3c(N4CC[C@H]5CC[C@@H](C4)N5)nc(OC[C@@]45CCCN4C[C@H](F)C5)nc3c2F)c1C(F)(F)F [Example 4-1, 6-(2-{[(2R,7aS)-2-fluoro-hexahydro-1H-pyrrolizin-7a-yl]methoxy}-6-chloro-4-[(1S,6R)-3,9-diazabicyclo[4.2.1]nonan-3-yl]-8-fluoroquinazolin-7-yl)-4-methyl-5-(trifluoromethyl)pyridin-2-amine]	0.005 µM	0.06 µM
Cc1cc(N)nc(-c2c(Cl)cc3c(N4CC[C@H]5CC[C@@H](C4)N5)nc(OC[C@]45CCCN4C[C@@H](F)C5)nc3c2F)c1C(F)(F)F [Example 4-2, 6-(2-{[(2S,7aR)-2-fluoro-hexahydro-1H-pyrrolizin-7a-yl]methoxy}-6-chloro-4-[(1S,6R)-3,9-diazabicyclo[4.2.1]nonan-3-yl]-8-fluoroquinazolin-7-yl)-4-methyl-5-(trifluoromethyl)pyridin-2-amine]	0.006 µM	0.43 µM
Cc1cc(N)nc(-c2c(Cl)cc3c(N4CC[C@H]5CC[C@@H](C4)N5)nc(OC[C@]45CCCN4C[C@H](F)C5)nc3c2F)c1C(F)(F)F [Example 4-3, 6-(2-{[(2R,7aR)-2-fluoro-hexahydro-1H-pyrrolizin-7a-yl]methoxy}-6-chloro-4-[(1S,6R)-3,9-diazabicyclo[4.2.1]nonan-3-yl]-8-fluoroquinazolin-7-yl)-4-methyl-5-(trifluoromethyl)pyridin-2-amine]	0.02 µM	0.52 µM
CO[C@@H]1C[C@@H](COc2nc(N3CC[C@H]4CC[C@@H](C3)N4)c3cc(Cl)c(-c4nc(N)cc(C)c4C(F)(F)F)c(F)c3n2)N(C)C1 [Example 4-4, 6-{6-chloro-4-[(1S,6R)-3,9-diazabicyclo[4.2.1]nonan-3-yl]-8-fluoro-2-{[(2S,4R)-4-methoxy-1-methylpyrrolidin-2-yl]methoxy}quinazolin-7-yl}-4-methyl-5-(trifluoromethyl)pyridin-2-amine]	0.010 µM	1.81 µM
Cc1cc(N)nc(-c2c(Cl)cc3c(N4CC[C@H]5CC[C@@H](C4)N5)nc(OC[C@@]45CCCN4C[C@@H](F)C5)nc3c2F)c1C(F)(F)F [Example 5, 6-(2-{[(2S,7aS)-2-fluoro-hexahydro-1H-pyrrolizin-7a-yl]methoxy}-6-chloro-4-[(1S,6R)-3,9-diazabicyclo[4.2.1]nonan-3-yl]-8-fluoroquinazolin-7-yl)-4-methyl-5-(trifluoromethyl)pyridin-2-amine]	<0.002 µM	2.87 µM
CN1CCC[C@H]1COc1nc(N2CC[C@H]3CC[C@@H](C2)N3)c2cc(Cl)c(-c3cc(O)cc4ccccc34)c(F)c2n1 [Example 6, 4-{6-chloro-4-[(1S,6R)-3,9-diazabicyclo[4.2.1]nonan-3-yl]-8-fluoro-2-{[(2S)-1-methylpyrrolidin-2-yl]methoxy}quinazolin-7-yl}naphthalen-2-ol]	0.01 µM	3.68 µM
Oc1cc(-c2c(Cl)cc3c(N4CC[C@H]5CC[C@@H](C4)N5)nc(OC[C@]45CCCN4C[C@H](F)C5)nc3c2F)c2ccccc2c1 [Example 7, 4-(2-{[(2R,7aR)-2-fluoro-hexahydro-1H-pyrrolizin-7a-yl]methoxy}-6-chloro-4-[(1S,6R)-3,9-diazabicyclo[4.2.1]nonan-3-yl]-8-fluoroquinazolin-7-yl)naphthalen-2-ol]	<0.002 µM	0.48 µM
